Values quoted from earlier work in patent US6387904B2, “Method of treating glaucoma and ischemic retinopathy” (Pfizer INC, priority 1998, dated 2002).
Counter-ions that a name gives are not always drawn.

Assays:
DA reuptake = target: T1, DA reuptake (Homo sapiens, UniProt Q01959); settings: neurotransmitter uptake inhibition; mean ± spread (n)
T1 construct: host or cells: central nervous system tissue

5-HT1A = target: T2, 5-HT1A (Homo sapiens, UniProt P08908); settings: ligand [3H]-80H-DPAT; central nervous system tissue; mean ± spread (n)
T2 construct: host or cells: central nervous system tissue
T2 sequence (P08908 1-422): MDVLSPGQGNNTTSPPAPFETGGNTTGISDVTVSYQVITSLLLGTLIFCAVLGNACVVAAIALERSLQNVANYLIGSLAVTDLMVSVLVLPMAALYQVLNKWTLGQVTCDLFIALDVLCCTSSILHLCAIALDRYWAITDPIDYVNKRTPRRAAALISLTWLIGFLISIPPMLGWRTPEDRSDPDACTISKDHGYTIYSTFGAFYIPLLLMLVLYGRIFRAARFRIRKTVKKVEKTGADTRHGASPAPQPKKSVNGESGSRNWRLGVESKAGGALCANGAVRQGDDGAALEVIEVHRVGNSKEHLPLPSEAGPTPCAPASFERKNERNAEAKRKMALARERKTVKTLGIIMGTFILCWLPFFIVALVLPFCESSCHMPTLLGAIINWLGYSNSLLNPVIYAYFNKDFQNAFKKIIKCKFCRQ

Norpinephrine reuptake = Norpinephrine reuptake (Homo sapiens, UniProt P23975); settings: neurotransmitter uptake inhibition; mean ± spread (n)
Sequence of Norpinephrine reuptake (P23975 whole entry): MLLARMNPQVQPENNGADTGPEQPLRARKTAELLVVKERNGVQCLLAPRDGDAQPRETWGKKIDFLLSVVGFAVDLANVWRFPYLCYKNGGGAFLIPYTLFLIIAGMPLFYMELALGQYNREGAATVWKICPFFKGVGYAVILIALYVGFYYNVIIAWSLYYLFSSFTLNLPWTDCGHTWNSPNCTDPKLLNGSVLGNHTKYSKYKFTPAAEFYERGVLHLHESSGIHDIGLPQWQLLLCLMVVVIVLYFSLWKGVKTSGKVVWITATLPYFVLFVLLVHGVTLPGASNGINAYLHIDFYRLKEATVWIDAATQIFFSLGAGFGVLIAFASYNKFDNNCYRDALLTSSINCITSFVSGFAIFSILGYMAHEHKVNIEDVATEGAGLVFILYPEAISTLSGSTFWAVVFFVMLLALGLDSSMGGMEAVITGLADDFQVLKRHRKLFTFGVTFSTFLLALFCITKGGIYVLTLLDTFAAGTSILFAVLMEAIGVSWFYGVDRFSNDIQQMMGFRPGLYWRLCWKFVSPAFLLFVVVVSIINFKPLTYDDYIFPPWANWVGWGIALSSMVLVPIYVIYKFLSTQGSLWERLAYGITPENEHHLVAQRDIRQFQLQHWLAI

T1 sequence (Q01959 whole entry): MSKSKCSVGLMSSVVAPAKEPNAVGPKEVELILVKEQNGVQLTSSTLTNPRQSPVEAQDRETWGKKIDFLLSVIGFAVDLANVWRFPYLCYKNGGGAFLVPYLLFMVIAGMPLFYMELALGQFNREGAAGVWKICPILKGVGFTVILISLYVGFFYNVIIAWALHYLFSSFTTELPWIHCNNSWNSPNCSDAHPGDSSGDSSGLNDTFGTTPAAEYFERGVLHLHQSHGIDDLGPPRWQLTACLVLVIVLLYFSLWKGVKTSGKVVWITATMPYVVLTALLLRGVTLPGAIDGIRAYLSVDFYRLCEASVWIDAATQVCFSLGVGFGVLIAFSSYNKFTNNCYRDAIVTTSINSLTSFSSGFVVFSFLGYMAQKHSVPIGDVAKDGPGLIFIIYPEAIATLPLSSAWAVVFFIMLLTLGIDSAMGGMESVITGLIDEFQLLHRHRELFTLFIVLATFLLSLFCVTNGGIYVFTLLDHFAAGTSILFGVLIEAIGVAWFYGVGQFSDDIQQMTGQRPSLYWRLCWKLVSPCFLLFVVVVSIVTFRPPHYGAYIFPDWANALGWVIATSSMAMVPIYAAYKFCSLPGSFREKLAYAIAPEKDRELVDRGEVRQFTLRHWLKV

O=C1Cc2cc(CCN3CCN(c4nsc5ccccc45)CC3)c(Cl)cc2N1 [ziprasidone, 5-(2-(4-(1,2-benzisothiazol-3-yl)piperazinyl)ethyl)-6-chlorooxindole hydrochloride]
pKi Neurotransmiter Reuptake Blockade: DA (DA reuptake): 6.58 ± 0.02 (3)
pKi 5-HT1A (5-HT1A): 8.47 ± 0.05 (4)
pKi Neurotransmiter Reuptake Blockade: Norpinephrine (Norpinephrine reuptake): 7.30 ± 0.01 (4)
